According to patent US8410090B2, “Heterocyclylamide-substituted thiazoles, pyrroles and thiophenes” (AiCuris GmbH & Co. KG, priority 2005, dated 2013):

Legend:
HCMV = assay: Anti-HCMV cytopathogenicity test (CPE inhibition); assay type: cell-based, human cytomegalovirus; settings: for EC50: Human betaherpesvirus 5, 144 h, concentration inhibiting CPE by 50% vs untreated virus control, HCMV-infected NHDF cells, M.O.I. 0.001-0.002, 6 days; for SI HCMV (selectivity index = CC50 (NHDF)/EC50 (HCMV)): ratio CC50 (NHDF)/EC50 (HCMV)
Protocol: Anti-HCMV (Anti-Human Cytomegalovirus) Cytopathogenicity Tests The test compounds are employed as 50 millimolar (mM) solutions in dimethyl sulphoxide (DMSO). Ganciclovir, foscarnet and cidofovir are used as reference compounds. After addition of in each case 2 μl of the 50, 5, 0.5 and 0.05 mM DMSO stock solutions to 98 μl portions of cell culture medium in row […] for duplicate determinations, 1:2 dilutions are carried out with 50 μl portions of medium up to row 11 of the 96-well plate. The wells in rows 1 and 12 each contain 50 μl of medium. Then 150 μl portions of a suspension of 1×10^4 cells (human prepuce fibroblasts [NHDF]) are pipetted into each of the wells (row 1=cell control) and, in rows 2-12, a mixture of HCMV-infected and uninfected NHDF cells (M.O.I.=0.001-0.002), i.e. 1-2 infected cells per 1000 uninfected cells. Row 12 (without substance) serves as virus control. The final test concentrations are 250-0.0005 μM. The plates are incubated at 37° C./5% CO2 for 6 days, i.e. until all the cells are infected in the virus controls (100% cytopathogenic effect [CPE]). The wells are then fixed and stained by adding a mixture of formalin and Giemsa's dye (30 minutes), washed with double-distilled water and dried in a drying oven at 50° C. The plates are then assessed visually using an overhead microscope (Plaque Multiplier from Technomara). The following data can be acquired from the test plates: EC50 (HCMV)=substance concentration in μM which inhibits the CPE (cytopathic effect) by 50% compared with the untreated virus control; SI (selectivity index)=CC50 (NHDF)/EC50 (HCMV).

[1] = Cytostatic effect on NHDF cells in the anti-HCMV cytopathogenicity test; assay type: cell-based; settings: human, NHDF cells (human prepuce fibroblasts); maximum concentration with no visible cytostatic effects on NHDF cells vs untreated cell control; 6 days incubation
Protocol: Anti-HCMV (Anti-Human Cytomegalovirus) Cytopathogenicity Tests The test compounds are employed as 50 millimolar (mM) solutions in dimethyl sulphoxide (DMSO). Ganciclovir, foscarnet and cidofovir are used as reference compounds. After addition of in each case 2 μl of the 50, 5, 0.5 and 0.05 mM DMSO stock solutions to 98 μl portions of cell culture medium in row […] for duplicate determinations, 1:2 dilutions are carried out with 50 μl portions of medium up to row 11 of the 96-well plate. The wells in rows 1 and 12 each contain 50 μl of medium. Then 150 μl portions of a suspension of 1×10^4 cells (human prepuce fibroblasts [NHDF]) are pipetted into each of the wells (row 1=cell control) and, in rows 2-12, a mixture of HCMV-infected and uninfected NHDF cells (M.O.I.=0.001-0.002), i.e. 1-2 infected cells per 1000 uninfected cells. Row 12 (without substance) serves as virus control. The final test concentrations are 250-0.0005 μM. The plates are incubated at 37° C./5% CO2 for 6 days, i.e. until all the cells are infected in the virus controls (100% cytopathogenic effect [CPE]). The wells are then fixed and stained by adding a mixture of formalin and Giemsa's dye (30 minutes), washed with double-distilled water and dried in a drying oven at 50° C. The plates are then assessed visually using an overhead microscope (Plaque Multiplier from Technomara). The following data can be acquired from the test plates: CC50 (NHDF)=maximum substance concentration in μM at which no visible cytostatic effects on the cells are evident by comparison with the untreated cell control;

Compound | EC50 (HCMV) [µM] | SI HCMV (selectivity index = CC50 (NHDF)/EC50 (HCMV)) (HCMV) | CC50 at 6 days [1] [µM]
Cc1ccc(N2CCN(C(=O)c3cnc(NC(=O)Nc4ccc(OC(F)(F)F)cc4)s3)CC2)nc1 [Example 23] | 0.0054 | 2637 | 11
CCn1cc(NC(=O)Nc2ccc(OC(F)(F)F)cc2)cc1C(=O)N1CCN(c2ccc(C)cn2)CC1 [Example 4, N-(1-Ethyl-5-{[4-(5-methylpyridin-2-yl)piperazin-1-yl]carbonyl}-1H-pyrrol-3-yl)-N′-[4-(trifluoromethoxy)phenyl]urea] | 0.0007 | 28767 | 21
Cc1ccc(N2CCN(C(=O)c3cc(NC(=O)Nc4ccc(OC(F)(F)F)cc4)cs3)CC2)nc1 [Example 9, N-(5-{[4-(5-Methylpyridin-2-yl)piperazin-1-yl]carbonyl}-3-thienyl)-N′-[4-(trifluoromethoxy)-phenyl]urea] | 0.0059 | 3559 | 21
Cc1ccc(N2CCN(C(=O)c3nc(NC(=O)Nc4ccc(OC(F)(F)F)cc4)sc3C)CC2)nc1 [Example 14] | 0.0016 | 7333 | 11
